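48-hour exposure; five concentrations; linearly interpolated endpoints. TGI is the concentration that stops growth completely.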
Assays:
Experiment in all cases: inhibition of tumour cell growth, NCI panel, 48 h
[1] = system: 786-0 renal
[2] = system: A498 renal
[3] = system: A549 NSCLC
[4] = system: ACHN renal
[5] = system: CAKI-1 renal
[6] = system: CCRF-CEM leukemia
[7] = system: COLO 205 colon
[8] = system: DLD-1 colon
[9] = system: DMS 114 small cell lung
[10] = system: DMS 273 small cell lung
[11] = system: EKVX NSCLC
[12] = system: HCC-2998 colon
[13] = system: HCT-116 colon
[14] = system: HL-60(TB) leukemia
[15] = system: HOP-18 NSCLC
[16] = system: HOP-62 NSCLC
[17] = system: HOP-92 NSCLC
[18] = system: HT29 colon
[19] = system: IGROV1 ovarian
[20] = system: K-562 leukemia
[21] = system: KM12 colon
[22] = system: KM20L2 colon
[23] = system: LOX IMVI melanoma
[24] = system: M14 melanoma
[25] = system: M19-MEL melanoma
[26] = system: MALME-3M melanoma
[27] = system: MOLT-4 leukemia
[28] = system: NCI-H226 lung
[29] = system: NCI-H23 lung
[30] = system: NCI-H460 lung
[31] = system: NCI-H522 lung
[32] = system: OVCAR-3 ovarian
[33] = system: OVCAR-4 ovarian
[34] = system: OVCAR-5 ovarian
[35] = system: OVCAR-8 ovarian
[36] = system: RPMI-8226 leukemia
[37] = system: RXF 393 renal
[38] = system: SF-268 CNS
[39] = system: SF-295 CNS
[40] = system: SF-539 CNS
[41] = system: SK-MEL-2 melanoma
[42] = system: SK-MEL-28 melanoma
[43] = system: SK-MEL-5 melanoma
[44] = system: SK-OV-3 ovarian
[45] = system: SN12C renal
[46] = system: SNB-19 CNS
[47] = system: SNB-75 CNS
[48] = system: SNB-78 CNS
[49] = system: SR leukemia
[50] = system: SW-620 colon
[51] = system: TK-10 renal
[52] = system: U251 CNS
[53] = system: UACC-257 melanoma
[54] = system: UACC-62 melanoma
[55] = system: UO-31 renal
[56] = system: XF 498 CNS
[57] = system: HCT-15 colon
[58] = system: LXFL 529 NSCLC
[59] = system: RXF-631 renal
[60] = system: BT-549 breast
[61] = system: DU-145 prostate
[62] = system: HS 578T breast
[63] = system: MCF7 breast
[64] = system: MDA-MB-231 breast
[65] = system: MDA-MB-435
[66] = system: MDA-N
[67] = system: NCI/ADR-RES ovarian
[68] = system: PC-3 prostate
[69] = system: T-47D breast

C=CC[C@H](C[C@H](C[C@H](C[C@H](C[C@H](C[C@H](C[C@H](C[C@H](C[C@H](C[C@H](CCCCC)OC)OC)OC)OC)OC)OC)OC)OC)OC)OC
TGI [1]: > 100 µM
TGI [2]: > 100 µM
TGI [3]: > 100 µM
TGI [4]: > 100 µM
TGI [5]: > 100 µM
TGI [6]: > 100 µM
TGI [7]: > 100 µM
TGI [8]: > 100 µM
TGI [9]: > 100 µM
TGI [10]: > 100 µM
TGI [11]: > 100 µM
TGI [12]: > 100 µM
TGI [13]: > 100 µM
TGI [14]: > 100 µM
TGI [15]: > 100 µM
TGI [16]: > 100 µM
TGI [17]: > 100 µM
TGI [18]: > 100 µM
TGI [19]: > 100 µM
TGI [20]: > 100 µM
TGI [21]: > 100 µM
TGI [22]: > 100 µM
TGI [23]: > 100 µM
TGI [24]: > 100 µM
TGI [25]: > 100 µM
TGI [26]: > 100 µM
TGI [27]: > 100 µM
TGI [28]: > 100 µM
TGI [29]: > 100 µM
TGI [30]: > 100 µM
TGI [31]: > 100 µM
TGI [32]: > 100 µM
TGI [33]: > 100 µM
TGI [34]: > 100 µM
TGI [35]: > 100 µM
TGI [36]: > 100 µM
TGI [37]: > 100 µM
TGI [38]: > 100 µM
TGI [39]: > 100 µM
TGI [40]: > 100 µM
TGI [41]: > 100 µM
TGI [42]: > 100 µM
TGI [43]: > 100 µM
TGI [44]: > 100 µM
TGI [45]: > 100 µM
TGI [46]: > 100 µM
TGI [47]: > 100 µM
TGI [48]: > 100 µM
TGI [49]: > 100 µM
TGI [50]: > 100 µM
TGI [51]: > 100 µM
TGI [52]: > 100 µM
TGI [53]: > 100 µM
TGI [54]: > 100 µM
TGI [55]: > 100 µM
TGI [56]: > 100 µM

C=C(C)CCOC(c1ccccc1)(c1ccccc1)c1ccccc1
TGI [1]: > 100 µM
TGI [3]: > 100 µM
TGI [4]: > 100 µM
TGI [5]: > 100 µM
TGI [6]: > 100 µM
TGI [7]: > 100 µM
TGI [8]: > 100 µM
TGI [12]: > 100 µM
TGI [13]: 76.6 µM
TGI [57]: > 100 µM
TGI [14]: > 100 µM
TGI [16]: > 100 µM
TGI [17]: > 100 µM
TGI [18]: 70.6 µM
TGI [19]: > 100 µM
TGI [20]: > 100 µM
TGI [21]: > 100 µM
TGI [22]: > 100 µM
TGI [23]: 79.2 µM
TGI [58]: > 100 µM
TGI [24]: > 100 µM
TGI [25]: > 100 µM
TGI [26]: > 100 µM
TGI [27]: > 100 µM
TGI [28]: 97.8 µM
TGI [29]: > 100 µM
TGI [30]: > 100 µM
TGI [31]: 76.3 µM
TGI [32]: > 100 µM
TGI [33]: > 100 µM
TGI [34]: > 100 µM
TGI [35]: > 100 µM
TGI [36]: > 100 µM
TGI [37]: 82.8 µM
TGI [59]: > 100 µM
TGI [38]: > 100 µM
TGI [39]: > 100 µM
TGI [40]: > 100 µM
TGI [42]: > 100 µM
TGI [43]: > 100 µM
TGI [44]: > 100 µM
TGI [45]: > 100 µM
TGI [46]: > 100 µM
TGI [47]: > 100 µM
TGI [48]: > 100 µM
TGI [50]: > 100 µM
TGI [51]: > 100 µM
TGI [52]: > 100 µM
TGI [53]: 80.5 µM
TGI [54]: > 100 µM
TGI [55]: > 100 µM
TGI [56]: 90.3 µM

O=C(/C=C/c1ccc(O)cc1)c1ccc(O)cc1
TGI [1]: > 100 µM
TGI [2]: 65.1 µM
TGI [3]: > 100 µM
TGI [4]: > 74.3 µM
TGI [60]: > 75.3 µM
TGI [5]: 37.9 µM
TGI [6]: > 85 µM
TGI [7]: > 65.9 µM
TGI [8]: 36.9 µM
TGI [9]: 43.8 µM
TGI [10]: 36.9 µM
TGI [61]: 99.9 µM
TGI [11]: 97.1 µM
TGI [12]: 52.7 µM
TGI [13]: 36.3 µM
TGI [57]: 57.5 µM
TGI [14]: > 75.1 µM
TGI [15]: > 100 µM
TGI [16]: 49.1 µM
TGI [17]: 76 µM
TGI [62]: > 67.5 µM
TGI [18]: 48.5 µM
TGI [19]: > 100 µM
TGI [20]: > 82.3 µM
TGI [21]: 19.8 µM
TGI [22]: 47 µM
TGI [23]: 28.1 µM
TGI [24]: 42.7 µM
TGI [25]: 42.2 µM
TGI [26]: 70 µM
TGI [63]: > 100 µM
TGI [64]: > 100 µM
TGI [65]: > 100 µM
TGI [66]: > 88.4 µM
TGI [27]: 82.3 µM
TGI [28]: 27.2 µM
TGI [29]: 62.6 µM
TGI [30]: 72.5 µM
TGI [31]: 9.22 µM
TGI [67]: > 63.1 µM
TGI [32]: 52.1 µM
TGI [33]: > 100 µM
TGI [34]: > 76.3 µM
TGI [35]: 41.6 µM
TGI [68]: > 100 µM
TGI [36]: 69 µM
TGI [37]: 50.1 µM
TGI [38]: 71.8 µM
TGI [39]: > 96.7 µM
TGI [40]: 54.2 µM
TGI [41]: 50 µM
TGI [42]: 61.3 µM
TGI [43]: 44.2 µM
TGI [44]: > 100 µM
TGI [45]: 79 µM
TGI [46]: > 78.2 µM
TGI [47]: 51.7 µM
TGI [48]: > 100 µM
TGI [49]: 51.3 µM
TGI [50]: 57.9 µM
TGI [69]: > 100 µM
TGI [51]: > 100 µM
TGI [52]: 46.6 µM
TGI [53]: 74.7 µM
TGI [54]: > 66.8 µM
TGI [55]: 51.2 µM
TGI [56]: 34.1 µM

Source: PubChem BioAssay (NCI)
